Source: patent US20240415819A1, “MACROCYCLIC COMPOUNDS AS PROTEASOME SUBUNIT BETA TYPE-5 INHIBITORS” (Lead Discovery Center GmbH, priority 2021, published 2024)

Columns and labels:
HT-29 cells = assay: CellTiter-Glo luminescent cell viability assay with HT-29 cells (72h incubation); type: cell-based, human; details: Homo sapiens, HT-29, HT29 cells, read-out: CTG HT29
Description: Cell Titer Glo Viability Assay with HT-29 Cells (72h Incubation) The CellTiter-Glo Luminescent Cell Viability Assay (Promega) is a homogeneous method of determining the number of viable cells in culture. It is based on quantification of ATP, indicating the presence of metabolically active cells. On day 1 400 HT-29 cells per well are seeded in white 384well plates (Greiner, #781080) in 25 μl cell culture medium (DMEM (PAN-Biotech #P04-03590)+10% FCS+glutamine). After incubation for 24 h at 37° C./5% CO2 compounds or DMSO are added at different concentrations by Echo Liquid Handling Technology. Cells are further incubated in humidified chambers for 72 h at 37° C. and 5% CO2. Cells treated with the compound vehicle DMSO are used as positive controls and cells treated with 10 μM Staurosporine serve as negative controls. At day 5-72h after compound addition—the CellTiter Glo Reagent is prepared according to the instructions of the kit (Promega Inc.): Reagent is mixed 1:1 with cell culture medium. Thereon, mixture and assay plates are equilibrated at room temperature for 20 min. Equal volumes of the reagent-medium-mixture is added to the volume of culture medium present in each well. The plates are mixed at […] for 2 minutes on an orbital shaker. The microplates are then incubated at room temperature for 10 minutes for stabilization of the luminescent signal. Following incubation the luminescence is recorded on a Victor microplate reader (Perkin Elmer) using a 200 ms integration time. The data is then analyzed with Excel using the XLFIT Plugin (dose response Fit 205) for IC50-determination. As quality control the Z′-factor is calculated from 16 positive and negative control values. […] Inhibition is indicated as IC50 [nM] (“-”=not measured).

[1] = target: T1, β5 subunit of the human constitutive proteasome (CPS) (Homo sapiens, UniProt P28074); assay: β5 inhibition assay, human constitutive proteasome (Suc-LLVY-AMC); type: biochemical; details: IC50 class, Suc-LLVY-AMC substrate
T1 construct: purchased Boston Biochem E-360
Description: The enzymatic activity of the β5 subunit of the human constitutive proteasome (CPS) is analyzed. In another assay, which differs from the assay of the human constitutive proteasome only in using the human immunoproteasome (IPS) the enzymatic activity of the β5 subunit of the human immunoproteasome (IPS) is analyzed. […] Inhibition is indicated as IC50 [nM] (“-”=not measured).

[2] = target: T2, β5 subunit of the human immunoproteasome (IPS) (Homo sapiens, UniProt P28062); assay: β5 inhibition assay, human immunoproteasome (Suc-LLVY-AMC); type: biochemical; details: IC50 class, Suc-LLVY-AMC substrate
T2 construct: purchased Boston Biochem E-370
Description: The enzymatic activity of the β5 subunit of the human constitutive proteasome (CPS) is analyzed. In another assay, which differs from the assay of the human constitutive proteasome only in using the human immunoproteasome (IPS) the enzymatic activity of the β5 subunit of the human immunoproteasome (IPS) is analyzed. Incubation of the enzyme with its fluorogenic substrate Suc-LLVY-AMC leads to liberation of the fluorescent dye AMC which can be measured with a suitable plate reader. • 100 mM HEPES pH7.5 • 50 mM NaCl • 0.02% SDS • 1 mM DTT (add fresh) • Victor X5 (Perkin Elmer) • Label: Umbeliferone (0.1s) • Excitation wavelength: 355 nm • Emission wavelength: 460 nm • 4 μl human cPS or IPS enzyme in assay buffer (final assay concentration 1 nM) or 4 μl assay buffer for negative controls • Compound addition via acoustic dispenser (Echo 520, Labcyte) • Mix and incubate @ RT for 10 min • 4 μl Suc-LLVY-AMC substrate (final assay concentration 22.6 μM) • Mix and incubate @ RT for 4 h (dark) • Stop reaction with 4 μl Bortezomib (final assay concentration 1 μM) • 15 min @ RT • Measure (Excitation 355 nm; Emission 460 nm)

Structure (SMILES)	IC50 (HT-29 cells)	IC50 [1]	IC50 [2]
Cc1ccc2cc1CNC(=O)[C@H](CCc1ccccc1)NC(=O)[C@@H](NC(=O)OCc1ccccc1)CC(=O)N1CC(CCO2)Cc2ccccc21 (stereo partly drawn) [Compound 313, benzyl ((9S, 12S)-5^4-methyl-8,11,14-trioxo-9-phenethyl-11,12,13,14-tetrahydro-4-oxa-7,10-diaza-1(3,1)-quinolina-5(1,3)-benzenacyclotetradecaphane-12-yl)carbamate]	100 to 500 nM	> 5000 nM	500 to 1000 nM
Cc1cc(CC(=O)N[C@H]2CC(=O)N3CCCC(CCOc4ccc(C)c(c4)CNC(=O)[C@H](CCc4ccccc4)NC2=O)C3)ccc1N (stereo partly drawn) [Compound 303, 2-(4-amino-3-methylphenyl)-N-((9S,12S)-5^4-methyl-8,11,14-trioxo-9-phenethyl-4-oxa-7,10-diaza-1(3,1)-piperidina-5(1,3)-benzenacyclotetradecaphane-12-yl)acetamide]	< 100 nM	< 100 nM	< 100 nM
Cc1ccc2cc1CNC(=O)[C@H](CCc1ccccc1)NC(=O)[C@@H](NC(=O)C1(c3ccc(N)cc3)CC1)CC(=O)N1CCCC(CCO2)C1 (stereo partly drawn) [Compound 307, 1-(4-aminophenyl)-N-((9S,12S)-5^4-methyl-8,11,14-trioxo-9-phenethyl-4-oxa-7,10-diaza-1(3,1)-piperidina-5(1,3)-benzenacyclotetradecaphane-12-yl)cyclopropane-1-carboxamide]	< 100 nM	< 100 nM	< 100 nM
Cc1ccc2cc1CNC(=O)[C@H](CCc1ccccc1)NC(=O)[C@@H](NC(=O)Cc1ccc(N)cc1F)CC(=O)N1CCCC(CCO2)C1 (stereo partly drawn) [Compound 318, 2-(4-amino-2-fluorophenyl)-N-((9S,12S)-5^4-methyl-8,11,14-trioxo-9-phenethyl-4-oxa-7,10-diaza-1(3,1)-piperidina-5(1,3)-benzenacyclotetradecaphane-12-yl)acetamide]	< 100 nM	< 100 nM	< 100 nM
Cc1ccc2cc1CNC(=O)[C@H](CCc1ccccc1)NC(=O)[C@@H](NC(=O)C1CCc3cc(N)ccc31)CC(=O)N1CCCC(CCO2)C1 (stereo partly drawn) [Compound 317, 5-amino-N-((9S,12S)-5^4-methyl-8,11,14-trioxo-9-phenethyl-4-oxa-7,10-diaza-1(3,1)-piperidina-5(1,3)-benzenacyclotetradecaphane-12-yl)-2,3-dihydro-1H-indene-1-carboxamide]	< 100 nM	< 100 nM	< 100 nM
Cc1ccc2cc1CNC(=O)[C@H](CCc1ccccc1)NC(=O)[C@@H](NC(=O)Cc1ccc(N)cc1C)CC(=O)N1CCCC(CCO2)C1 (stereo partly drawn) [Compound 304, 2-(4-amino-2-methylphenyl)-N-((9S,12S)-5^4-methyl-8,11,14-trioxo-9-phenethyl-4-oxa-7,10-diaza-1(3,1)-piperidina-5(1,3)-benzenacyclotetradecaphane-12-yl)acetamide]	< 100 nM	< 100 nM	< 100 nM
Cc1ccc2cc1CNC(=O)[C@H](CCc1ccccc1)NC(=O)[C@@H](NC(=O)OCc1ccccc1)CC(=O)N(C)CCO2 [Compound 312, benzyl ((8S,11S)-1^4,5-dimethyl-6,9,12-trioxo-11-phenethyl-2-oxa-5,10,13-triaza-1(1,3)-benzenacyclotetradecaphane-8-yl)carbamate]	100 to 500 nM	> 5000 nM	100 to 500 nM
Cc1ccc2cc1CNC(=O)[C@H](CCc1ccccc1)NC(=O)[C@@H](NC(=O)OCc1ccccc1)CC(=O)N1CC(CCO2)CCC1C (stereo partly drawn) [Compound 315, benzyl ((9S,12S)-1^6,5^4-dimethyl-8,11,14-trioxo-9-phenethyl-4-oxa-7,10-diaza-1(3,1)-piperidina-5(1,3)-benzenacyclotetradecaphane-12-yl)carbamate]	< 100 nM	< 100 nM	< 100 nM
Cc1ccc2cc1CNC(=O)[C@H](CCc1ccccc1)NC(=O)[C@@H](NC(=O)c1cccc3cc(N)ncc13)CC(=O)N1CCCC(CCO2)C1 (stereo partly drawn) [Compound 319, 3-amino-N-((9S,12S)-5^4-methyl-8,11,14-trioxo-9-phenethyl-4-oxa-7,10-diaza-1(3,1)-piperidina-5(1,3)-benzenacyclotetradecaphane-12-yl)isoquinoline-8-carboxamide]	< 100 nM	< 100 nM	< 100 nM
Cc1ccc2cc1CNC(=O)[C@H](CCc1ccccc1)NC(=O)[C@@H](NC(=O)C1(c3ccc(N)cc3)CCCC1)CC(=O)N1CCCC(CCO2)C1 (stereo partly drawn) [Compound 305, 1-(4-aminophenyl)-N-((9S,12S)-5^4-methyl-8,11,14-trioxo-9-phenethyl-4-oxa-7,10-diaza-1(3,1)-piperidina-5(1,3)-benzenacyclotetradecaphane-12-yl)cyclopentane-1-carboxamide]	< 100 nM	< 100 nM	< 100 nM
Cc1ccc2cc1CNC(=O)[C@H](CCc1ccccc1)NC(=O)[C@@H](NC(=O)c1cccc3c1CNCC3)CC(=O)N1CCCC(CCO2)C1 (stereo partly drawn) [Compound 316, N-((9S,12S)-5^4-methyl-8,11,14-trioxo-9-phenethyl-4-oxa-7,10-diaza-1(3,1)-piperidina-5(1,3)-benzenacyclotetradecaphane-12-yl)-1,2,3,4-tetrahydroisoquinoline-5-carboxamide]	< 100 nM	< 100 nM	< 100 nM
CCNC(=O)N[C@H]1CC(=O)N2CCCC(CCOc3ccc(C)c(c3)CNC(=O)[C@H](CCc3ccccc3)NC1=O)C2 (stereo partly drawn) [Compound 38, 1-ethyl-3-((9S,12S)-5^4-methyl-8,11,14-trioxo-9-phenethyl-4-oxa-7,10-diaza-1(3,1)-piperidina-5(1,3)-benzenacyclotetradecaphane-12-yl)urea]	< 100 nM	–	–
Cc1ccc2cc1CNC(=O)[C@H](CCc1ccccc1)NC(=O)[C@@H](NC(=O)Cc1ccc(N)cc1)CC(=O)N1CCC[C@H](CCO2)C1 [Compound 172, 2-(4-aminophenyl)-N-((13R,9S,12S)-5^4-methyl-8,11,14-trioxo-9-phenethyl-4-oxa-7,10-diaza-1(3,1)-piperidina-5(1,3)-benzenacyclotetradecaphane-12-yl)acetamide]	< 100 nM	–	–
Cc1ccc2cc1CNC(=O)C(CCc1cnccn1)NC(=O)[C@@H](NC(=O)[C@@H](C)c1ccccc1)CC(=O)N1CCCC(CCO2)C1 (stereo partly drawn) [Compound 107, (2S)—N-((12S)-5^4-methyl-8,11,14-trioxo-9-(2-(pyrazin-2-yl)ethyl)-4-oxa-7,10-diaza-1(3,1)-piperidina-5(1,3)-benzenacyclotetradecaphane-12-yl)-2-phenylpropanamide]	< 100 nM	–	–
Cc1ccc2cc1CNC(=O)[C@H](CCc1ccccc1)NC(=O)[C@@H](NC(=O)C1(c3ccc(N)cc3)CCC1)CC(=O)N1CCCC(CCO2)C1 (stereo partly drawn) [Compound 306, 1-(4-aminophenyl)-N-((9S,12S)-5^4-methyl-8,11,14-trioxo-9-phenethyl-4-oxa-7,10-diaza-1(3,1)-piperidina-5(1,3)-benzenacyclotetradecaphane-12-yl)cyclobutane-1-carboxamide]	< 100 nM	< 100 nM	< 100 nM
Cc1ccc2cc1CNC(=O)[C@H](CCc1ccccc1)NC(=O)[C@@H](NC(=O)C(C)(C)c1ccc(N)cc1)CC(=O)N1CCCC(CCO2)C1 (stereo partly drawn) [Compound 308, 2-(4-aminophenyl)-2-methyl-N-((9S,12S)-5^4-methyl-8,11,14-trioxo-9-phenethyl-4-oxa-7,10-diaza-1(3,1)-piperidina-5(1,3)-benzenacyclotetradecaphane-12-yl)propanamide]	< 100 nM	< 100 nM	< 100 nM
Cc1ccc2cc1CNC(=O)[C@H](CCc1ccccc1)NC(=O)[C@@H](NC(=O)c1cccnc1)CC(=O)N1CCCC(CCO2)C1 (stereo partly drawn) [Compound 41, N-((9S,12S)-5^4-methyl-8,11,14-trioxo-9-phenethyl-4-oxa-7,10-diaza-1(3,1)-piperidina-5(1,3)-benzenacyclotetradecaphane-12-yl)nicotinamide]	< 100 nM	–	–
